{
  "source": "patent US20230075965A1",
  "about": "“USES OF BIOMARKERS FOR IMPROVING IMMUNOTHERAPY” (Dana-Farber Cancer Institute, Inc., priority 2020, published 2023)",
  "key": {"[1]": {"test_system": "HLA-E on HT29 and SW620 cells", "experiment": "Flow cytometry of surface HLA-E after IFN-gamma, STAT1 KO vs control KO", "assay_type": "cell-based, human", "conditions": "HT29 and SW620, 5 ng/ml IFN-gamma overnight", "description": "(§1) HT29 and SW620 cells were transduced with sgRNAs against STAT1 (or control OR genes) and treated overnight with vs. without 5 ng/ml IFN-gamma prior to staining. […] FIG. 6D CTG cytotoxicity assays (see Methods) for HT29 cells with HLA-E KO compared with control KO (data are represented as CTG cytotoxicity assays for HT29, SW620 cells with sgRNA against STAT1 (left) or HLA-E (right) or control KO (using OR10A2) at E:T 1:1, using 3-4 donors per line, n=7 different co-cultures, each co-culture was conducted in 6 replicates. (STAT1 p=7.24E-6, HLA-E p=2.27E-7, Mann-Whitney two sided test n=42). Data are represented as mean±SD). […] Pools of cells of the PRISM DNA-barcoded cell lines were labeled with a fluorescent conjugated antibody, sorted by flow cytometer into four bins based on its fluorescence levels and then sequenced to quantify the read counts of each barcode (and thus presence of cells from each cell line) in each bin. Surface protein expression scores were calculated per line from the read counts in each bin (see Method). […] Upper right: Normalized read counts of each bin sorted by SPIN. In view of the dynamic range of the antibody staining, the four bins were combined into two; reads from the top 2 bins with highest expression are labeled ‘High’ and reads from the 2 bins with lower staining are labeled ‘Low’. Middle right: calculated protein scores. […]"}, "[2]": {"test_system": "HLA-A/B/C on HT29 and SW620 cells", "experiment": "Flow cytometry of surface HLA-A/B/C after IFN-gamma, STAT1 KO vs control KO", "assay_type": "cell-based, human", "conditions": "HT29 and SW620, 5 ng/ml IFN-gamma overnight", "description": "as §1"}},
  "data": [
    {"substance": "IFN-gamma: interferon-gamma used to stimulate HLA-E and MHC class I expression on tumor cells", "values": [
      {"measurement": "HLA-E surface expression upon IFN-gamma stimulation", "setting": "[1]", "result": "upregulated in control KO, but not with STAT1 KO"},
      {"measurement": "HLA-A/B/C surface expression upon IFN-gamma stimulation", "setting": "[2]", "result": "further increased with IFN-gamma stimulation in the control KO, but not in STAT1 KO cells"}
    ]}
  ]
}
